Data: patent US20100040568A1, “Steroidal compounds as melanogenesis modifiers and uses thereof” (SkinMedica, Inc., priority 2008, published 2010)

Columns and labels:
[1] = system: melan-a cells; assay: Melanin assay in cultured murine melanocytes (melan-a); assay type: cell-based; conditions: 72 hours
Experimental: The Spectrum Collection library consisting of 2000 drug compounds or natural products was screened to identify novel pigmentation inhibitors or stimulators in cultured murine melanocytes (melan-a). Compounds were dissolved in dimethylsulfoxide (DMSO) to a final concentration of 10 mM. Screening was performed with cultured melanocytes in 24-well plates followed by melanin assay (see below). A minimum change of 50% in melanin formation was established as significant for a pigmentation inhibitor or stimulator. DMSO was used as a negative control and the widely used depigmenting agent, hydroquinone, was used as a positive control on every plate. […] Melan-a cells were plated at 5×10^4 cells per well in 1 ml of culture media in 24-well plates the day before adding the library compounds. All compounds were added at the indicated final concentrations. Cells were harvested after 72 hours of incubation, and melanin assay was performed. For the primary and secondary screening, cells were harvested and dissolved in 200 μl of 2N NaOH in 20% DMSO at 70° C. A 180-μl aliquot of the resulting solution was measured for absorbance at 490 nm. Cells are harvested in extraction buffer (1% Triton X-100, 50 mM Tris, 2 mM EDTA, 150 mM NaCl, pH 7.5) containing a complete protease inhibitor cocktail (Roche). The lysates were centrifuged at 14,000 rpm for 10 minutes at 4° C. BCA protein assay kit (Pierce) was used to measure the protein concentrations of the supernatants, and bovine serum albumin was used as a standard. […] A 180-μl aliquot of the resulting solution was measured for absorbance at 490 nm. The melanin contents were normalized to the total amount of protein. The IC50 value for inhibition of cellular melanin synthesis for conessine was determined by culturing melan-a cells with various concentrations of conessine for 72 hours. Briefly, melan-a cells were plated at 5×10^4 cells per well in 1 ml of culture media in 24-well plates the day before adding conessine. Conessine was added at the indicated final concentrations. DMSO was used as a negative control. Cells were harvested after 72 hours of incubation, and spectrophotometric melanin assay was performed on cell pellets. The melanin contents were normalized to the total amount of protein. Cell viability was determined by using the CellTiter 96 aqueous nonradioactive cell proliferation assay. […] Licorice extract was tested under similar conditions as conessine for its ability to decrease melanin synthesis in melan-a cells (FIG. 11c). Melan-a cells were plated at 5×10^4 cells per well in 1 ml of culture media in 24-well plates the day before adding Licorice extract. 70% ethanol was used as control and the Licorice extract was diluted in cell culture media at the indicated concentrations. […] Cells were harvested after 72 hours of incubation, and spectrophotometric melanin assay was performed on cell pellets. The melanin contents were normalized to the total amount of protein. Cell viability was determined by using the CellTiter 96 aqueous nonradioactive cell proliferation assay.

[2] = system: MEL-A; assay: MTT cell viability of treated MelanoDerm tissue; assay type: cell-based, human; conditions: 0.036% topical
Experimental: Conessine and Licorice extract were dissolved in 30% ethanol: 70% propylene glycol (PEG) to a final concentration of 0.036% (0.36 mg/ml). A 25 μl aliquot of each compound was applied topically to the Asian MelanoDerm™ tissue (MEL-A) on Days 0, 1, 3, 6, 8, 10 and 13. The MelanoDerm™ tissues were fed every other day with 5 ml fresh NMM-113. Prior to each application, the tissues were washed with 1 ml PBS to remove any residual test compound. Tissues were fixed on Days 13 and 16 for microscopic analysis and histological evaluation. In addition, duplicate tissues were frozen on Days 13 and 16 for melanin assay. 30% ethanol: 70% PEG was used as negative control. Cell viability was measured in accordance with the manufacturer's instructions using the MTT assay kit (MatTek Corp., Ashland, Mass. 01721). One MEL-A tissue from each condition was harvested on day 2 and 7, and MTT assay was performed.

[3] = system: Tyrosinase gene family proteins; assay: Immunoblot of tyrosinase gene family proteins in melan-a cells; assay type: cell-based, murine; conditions: various concentrations, 72 hours
Experimental: Melan-a cells were incubated with various concentrations of conessine for 72 hours. Cell lysates were prepared and separated by 7.5% sodium dodecyl sulfate-polyacrylamide gel and transferred to Immobilon-P membranes. Tyrosinase gene family proteins were detected with antibodies against each protein.

[4] = system: Lamp-1 (lysome-associated membrane protein 1); assay: Level of Lamp-1 in melan-a cells; assay type: cell-based, murine
Experimental: Melan-a cells were incubated with various concentrations of conessine for 72 hours. Cell lysates were prepared and separated by 7.5% sodium dodecyl sulfate-polyacrylamide gel and transferred to Immobilon-P membranes. Tyrosinase gene family proteins were detected with antibodies against each protein. […] The effect of conessine on the level of Lamp-1 in melan-a cells was examined. A common lineage among the melanosomes and lysosomes is well accepted. Lamp-1 (lysome-associated membrane protein 1) is a lysosome marker. […] Thus, conessine treatment likely results in decreased degradation of both Lamp-1 and tyrosinase gene family proteins (FIG. 12d), thus unexpectedly acting as a melanogenesis […].

[5] = system: melan-a cells; assay: CellTiter 96 aqueous nonradioactive cell proliferation assay (cell viability); assay type: cell-based, murine; conditions: concentrations below 20 μM
Experimental: The IC50 value for inhibition of cellular melanin synthesis for conessine was determined by culturing melan-a cells with various concentrations of conessine for 72 hours. Briefly, melan-a cells were plated at 5×10^4 cells per well in 1 ml of culture media in 24-well plates the day before adding conessine. Conessine was added at the indicated final concentrations. DMSO was used as a negative control. Cells were harvested after 72 hours of incubation, and spectrophotometric melanin assay was performed on cell pellets. The melanin contents were normalized to the total amount of protein. Cell viability was determined by using the CellTiter 96 aqueous nonradioactive cell proliferation assay.

## CC1C2CCC3C4CC=C5CC(N(C)C)CCC5(C)C4CCC32CN1C (centres unmarked) [Compound 1, Conessine]
[1]; indicated concentrations
  effect on melanin synthesis in melan-a cells: significantly inhibited melanogenesis in a dose-dependent manner
[1]; Mus musculus, melan-a cells, melanin normalized to protein, read-out: IC50 value for inhibition of cellular melanin synthesis
  IC50: ~2500 nM
[1]; melanin, melan-a cells, 1 μM
  % of control remaining @ 1 μM: 73.3 % of control
[1]; melanin, melan-a cells, 5 μM
  % of control remaining @ 5 μM: 32.2 % of control
[2]
  cytotoxicity of treated tissue: no detectable cytotoxicity
[3]
  cellular levels of tyrosinase family proteins: increases cellular levels of tyrosinase family proteins in a dose-dependent manner
[4]
  cellular level of Lamp-1: increases cellular level of Lamp-1
[5]
  cytotoxicity: did not exhibit cytotoxicity
